We go through two compounds from paper PMC8893300, “A Dynamic Mass Redistribution Assay for the Human Sweet Taste Receptor Uncovers G-Protein Dependent Biased Ligands” (Frontiers in Pharmacology, 2022).

Where two headings read alike, the source gives them in different places.

Common to all, as to format: cell-based
Assay [1] deals with T1, human sweet taste receptor (hT1R2/hT1R3) coupled to Gα15 (Homo sapiens, UniProt Q7RTX0+Q8TE23).
T1 construct: expressed in transfected cells
T1 sequence (Q8TE23 20-839): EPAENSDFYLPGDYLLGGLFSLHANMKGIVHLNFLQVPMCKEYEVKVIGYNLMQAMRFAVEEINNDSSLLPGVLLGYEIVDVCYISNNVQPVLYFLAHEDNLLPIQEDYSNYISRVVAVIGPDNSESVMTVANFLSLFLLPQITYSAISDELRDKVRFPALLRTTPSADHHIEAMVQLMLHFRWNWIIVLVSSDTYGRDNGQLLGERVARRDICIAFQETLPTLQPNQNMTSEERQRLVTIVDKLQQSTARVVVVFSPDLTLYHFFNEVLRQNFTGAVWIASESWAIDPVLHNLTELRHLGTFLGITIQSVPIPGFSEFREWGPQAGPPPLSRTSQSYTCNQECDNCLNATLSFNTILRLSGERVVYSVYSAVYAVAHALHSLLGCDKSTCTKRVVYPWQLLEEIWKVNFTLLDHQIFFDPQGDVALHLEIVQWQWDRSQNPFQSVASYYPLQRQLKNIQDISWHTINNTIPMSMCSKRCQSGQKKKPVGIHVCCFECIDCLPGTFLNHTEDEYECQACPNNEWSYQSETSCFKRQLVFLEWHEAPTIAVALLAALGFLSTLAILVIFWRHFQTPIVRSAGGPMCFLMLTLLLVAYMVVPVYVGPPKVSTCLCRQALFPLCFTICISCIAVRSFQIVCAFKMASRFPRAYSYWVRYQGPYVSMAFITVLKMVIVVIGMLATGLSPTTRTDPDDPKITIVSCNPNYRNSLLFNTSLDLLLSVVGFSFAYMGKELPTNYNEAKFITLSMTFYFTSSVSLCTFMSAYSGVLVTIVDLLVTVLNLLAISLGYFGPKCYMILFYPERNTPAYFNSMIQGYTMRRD
T1 sequence (Q7RTX0 21-852): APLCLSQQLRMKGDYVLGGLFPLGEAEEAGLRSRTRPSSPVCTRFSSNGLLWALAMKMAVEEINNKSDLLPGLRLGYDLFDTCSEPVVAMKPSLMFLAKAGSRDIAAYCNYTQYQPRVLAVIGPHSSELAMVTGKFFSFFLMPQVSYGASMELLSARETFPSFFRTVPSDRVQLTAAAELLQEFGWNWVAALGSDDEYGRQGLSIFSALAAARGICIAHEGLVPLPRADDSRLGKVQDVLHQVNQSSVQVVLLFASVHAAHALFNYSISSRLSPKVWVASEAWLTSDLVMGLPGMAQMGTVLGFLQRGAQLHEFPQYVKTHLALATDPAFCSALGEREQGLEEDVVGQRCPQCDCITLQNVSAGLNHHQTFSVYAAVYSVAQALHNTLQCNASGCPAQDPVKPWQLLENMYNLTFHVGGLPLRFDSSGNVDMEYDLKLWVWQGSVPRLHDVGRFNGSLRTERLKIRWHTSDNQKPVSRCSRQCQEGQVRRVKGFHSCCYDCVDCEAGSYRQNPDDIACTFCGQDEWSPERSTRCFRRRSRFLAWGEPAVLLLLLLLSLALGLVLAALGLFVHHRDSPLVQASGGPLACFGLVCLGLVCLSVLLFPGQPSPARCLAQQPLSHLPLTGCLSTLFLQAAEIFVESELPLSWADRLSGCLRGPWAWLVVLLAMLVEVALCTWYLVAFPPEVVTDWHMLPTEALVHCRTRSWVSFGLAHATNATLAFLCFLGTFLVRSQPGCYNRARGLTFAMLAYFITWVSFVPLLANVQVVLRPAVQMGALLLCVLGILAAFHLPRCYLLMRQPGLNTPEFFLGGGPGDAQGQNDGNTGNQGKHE
The experiment in a line: FLIPR calcium mobilization assay, R2/R3 U2OS cells transduced with Gα15 baculovirus. The conditions noted are these: for EC50: R2/R3 U2OS cells expressing Gα15. On the procedure: The Gα15 coding sequence was inserted in the HindIII-NotI sites and recombinant virus was generated using the Bac-to-Bac system (Life Technologies). Virus was further amplified by propagation in Sf9 cells grown in suspension using Sf900-II media. Virus titers were determined by plaque assay on Sf9 cells.
Cells were gently mixed with the virus at a multiplicity of infection (MOI) of 5. Using a multidrop, 70 μl per well of the cell and virus mixture was dispensed in a 384-well clear bottom plate (Fisher). After 24 h of incubation in a humidified 37°C tissue culture incubator, trichostatin A was added to a final concentration of 0.3 μM and the cells were incubated for another 18–24 h at 34°C. On the day of the experiment, cells were loaded with 4 μM of the calcium indicator Fluo-4 AM (Invitrogen) in D-PBS for 1 h at room temperature. After washing the cells with D-PBS using a cell washer (BioTek) and a 30-minute rest time, the cell plate and the compound plate were transferred into the FLIPR-Tetra (Molecular Devices). […] Loading and the FLIPR assay were run as described above. When indicated, data for agonist dose-responses were normalized to data obtained with a maximum concentration of sucralose (1 mM) and then fitted and plotted using GraphPad Prism (San Diego, CA) and non-linear regression analysis.
(§1) This value, that we termed pEC50Ratio (sucralose) or pEC50R (sucralose), was calculated with EC50 values obtained in the two assay systems. This transformation also allowed determination of an average and a standard error for the pEC50R (sucralose). The two sets of data (DMR and FLIPR data) were then analyzed with an un-paired t-test (α = 0.05). To calculate relative efficacy bias between the two assays, we captured the top asymptote value from each activity-normalized dose-response curve, as provided by the curve fit, calculated an average and a standard deviation (sd) for each agonist and then analyzed the data pairs with an un-paired t-test (α = 0.05). […] The following steps were followed: 1) Using the PRISM software, we re-analyzed each ligand’s dose-response data obtained in each assay with non-linear regression and the users-defined equation “New Operational Model with TauKa ratios” and retrieved logR values from the fits. 2) Subtracted each ligand’s logR value with that of our standard, the sucralose logR value, obtained from the same data set (each ligand dose-response assay data used in this analysis was accompanied with a sucralose dose-response ran on the same day), producing the ΔlogR value for leach ligand in each assay. 3) Calculated the mean and SEM from ΔlogR replicates (from three to nine independent dose-response analysis, in the two different assays). 4) Calculated ΔΔlogR values by subtracting the averaged ligands’ ΔlogR FLIPR values with the averaged ligands’ ΔlogR DMR values.
(A change in cytosolic calcium serves as a functional read-out for many receptors and channels.)

Assay [2] deals with T2, human sweet taste receptor (hT1R2/hT1R3) (Homo sapiens, UniProt Q7RTX0+Q8TE23).
T2 construct: expressed in transfected cells
T2 sequence (Q8TE23 20-839): T1 sequence (Q8TE23 20-839)
T2 sequence (Q7RTX0 21-852): T1 sequence (Q7RTX0 21-852)
Briefly: DMR assay (Epic reader) on R2/R3 U2OS cells, endogenous G proteins. As to conditions: for EC50: peak DMR response. The method, then:
(§2) The plates were incubated in the tissue culture hood for 20 min to allow cells to settle evenly at the bottom of the microplate and further cultured at 37°C in an atmosphere of 5% CO2 for 18–24 h. The next day, the cells were subjected to functional analysis using DMR. […] When indicated, data for agonist dose-responses were normalized to data obtained with a maximum concentration of sucralose (1 mM) and then fitted and plotted using GraphPad Prism (San Diego, CA) and non-linear regression analysis.
as §1

In assay [3] the test system is parental U2OS cells. Briefly: DMR assay on parental U2OS cells (receptor-independent responses). The method, then:
as §2, with “DMR. The lidded Epic® 384 microplate and polypropylene compound plate (Corning) were loaded into the carousel of the Epic® reader, the target plate was washed with DMSO matched D-PBS using the Corning Epic® Liquid Handling Accessory (LHA) and equilibrated in 25 μl of DMSO matched D-PBS for 90 min.” for “DMR.”

For `OC[C@H]1O[C@H](O[C@]2(CCl)O[C@H](CCl)[C@@H](O)[C@@H]2O)[C@H](O)[C@@H](O)[C@H]1Cl` [Sucralose], in assay [1] (Gα15, relative to response at 1 mM sucralose), the “dose-response curve's top asymptote in the FLIPR assay” value was 104%. Also, in assay [1] (Gα15, top asymptote of dose-response normalized to 1 mM sucralose), the “Activity in FLIPR assay Emax” value is 104. The EC50 in assay [1] (read-out: Activity in FLIPR assay EC50) is 72 µM; in assay [1] (read-out: Activity in FLIPR assay pEC50 (converted)), 69.3 µM; in assay [2] (R2/R3 U2OS cells, read-out: Activity in DMR assay EC50), 163 µM; in assay [2] (R2/R3 U2OS cells, read-out: Activity in DMR assay pEC50 (converted)), 150 µM. In addition, the “time of peak DMR response post-stimulation” value in assay [2] (R2/R3 U2OS cells) is recorded as around 4 min. Also, in assay [2] (relative to response at 1 mM sucralose), the “dose-response curve's top asymptote in the DMR assay” value is listed as “around 122%”. Further, the “Activity in DMR assay Emax” value in assay [2] (top asymptote of dose-response normalized to 1 mM sucralose) came to 122. In addition, the “non-specific DMR effect on parental U2OS cells” value in assay [3] (highest concentration of sucralose (≥2 mM)) was 20–40 pm.

With `OC[C@H]1O[C@@](CO)(O[C@H]2O[C@H](CO)[C@@H](O)[C@H](O)[C@H]2O)[C@@H](O)[C@@H]1O` [sucrose], the “response in the FLIPR assay, in words” value in assay [1] (R2/R3 U2OS cells transduced with Gα15) is listed as “readily detected”. Also, the “DMR response on parental U2OS cells, in words” value in assay [3] was “produced significant DMR responses”.
